Patent US11530216B2, “Deuterated colony stimulating factor-1 receptor (CSF-1R) inhibitors” (Genzyme Corporation, priority 2020, dated 2022)
Read-outs that look alike come from different tables or passages of the source.

What was measured:
[1] = test system: MCP-1 production in BV2 murine microglial cells; assay: MCP-1 ELISA, BV2 microglial cells after CSF-1 stimulation; format: cell-based; details: Mus musculus, BV-2, 30 min pre-treatment, 100 ng/mL M-CSF 24 hours
Experimental: Microglia cells were allowed to rest overnight at 37° C., 5% CO2. […] After stimulation, the culture supernatant was removed from each well and aliquoted into two different 96-well plates for subsequent ELISA assays.

CYP3A4 = CYP3A4 (Homo sapiens (Human), UniProt P08684); assay: CYP inhibition in human liver microsomes, CYP3A4; format: in vitro ADME
CYP3A4, sequence (P08684 whole entry): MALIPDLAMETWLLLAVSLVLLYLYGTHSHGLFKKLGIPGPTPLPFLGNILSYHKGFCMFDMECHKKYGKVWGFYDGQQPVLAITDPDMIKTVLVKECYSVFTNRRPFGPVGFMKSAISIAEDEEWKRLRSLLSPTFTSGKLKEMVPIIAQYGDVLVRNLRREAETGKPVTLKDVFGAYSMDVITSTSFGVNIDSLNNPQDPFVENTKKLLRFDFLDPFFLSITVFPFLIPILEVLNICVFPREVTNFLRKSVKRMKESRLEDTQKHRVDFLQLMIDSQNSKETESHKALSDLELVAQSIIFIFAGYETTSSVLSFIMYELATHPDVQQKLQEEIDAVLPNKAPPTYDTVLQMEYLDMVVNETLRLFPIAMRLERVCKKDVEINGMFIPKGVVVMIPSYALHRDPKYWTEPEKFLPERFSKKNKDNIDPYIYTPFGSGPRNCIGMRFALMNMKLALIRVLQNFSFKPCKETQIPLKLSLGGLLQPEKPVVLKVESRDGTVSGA
Experimental: (§1) The objective of this assay method was to determine the inhibitory potential of test articles, in vitro, against specific cytochrome P450 (CYP) enzymes, using human liver microsomes (HLMs). The test compounds were diluted from pure DMSO stocks to a final test concentration range of 10 μM-0.07 μM in a 0.5% DMSO solution. […] After incubation, the samples were extracted, and protein precipitated in acetonitrile containing 0.1% formic acid. The samples were centrifuged to remove excess protein, and were analyzed by LDTD/MS/MS to determine IC50 values. Key concentrations of substrates were as follows: CYP2D6 Substrate—Dextromethorphan at 10 μM. CYP3A4 Substrates—Testosterone at 60 μM, and Midazolam at 2 μM. Dextromethorphan and testosterone were incubated with the test compounds for 30 minutes each. Midazolam was incubated with the test compounds for 10 minutes.

CYP2D6 = CYP2D6 (Homo sapiens (Human), UniProt P10635); assay: CYP inhibition in human liver microsomes, CYP2D6; format: in vitro ADME; details: dextromethorphan 10 μM, 30 min, read-out: CYP inhibition mean IC50 (INH) isoform: CYP2D6 Substrate: dextromethorphan
CYP2D6, sequence (P10635 whole entry, canonical isoform): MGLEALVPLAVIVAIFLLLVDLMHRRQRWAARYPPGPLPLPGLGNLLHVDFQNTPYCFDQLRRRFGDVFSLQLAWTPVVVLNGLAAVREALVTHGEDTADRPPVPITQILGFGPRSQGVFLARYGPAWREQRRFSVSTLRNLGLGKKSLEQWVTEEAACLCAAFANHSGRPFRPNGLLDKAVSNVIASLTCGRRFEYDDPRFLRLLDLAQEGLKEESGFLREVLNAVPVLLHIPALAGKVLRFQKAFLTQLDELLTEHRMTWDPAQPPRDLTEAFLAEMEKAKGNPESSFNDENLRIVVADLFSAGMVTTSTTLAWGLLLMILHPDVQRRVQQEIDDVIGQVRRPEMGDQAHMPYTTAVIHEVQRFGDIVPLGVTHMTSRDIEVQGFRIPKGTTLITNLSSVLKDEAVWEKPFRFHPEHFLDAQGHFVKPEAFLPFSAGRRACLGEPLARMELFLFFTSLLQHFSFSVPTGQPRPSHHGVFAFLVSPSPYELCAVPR
Experimental: as §1

[2] = Rat hepatocyte intrinsic clearance; format: in vitro ADME; details: 1 μM, 0.5 million cells/mL
Experimental: (§2) Incubations were performed in 0.5 million hepatocytes cells/mL at 1 μM concentration of test compound in duplicate with rat, human, dog, monkey, or mouse hepatocytes, and the concentration-time course of test compound depletion was determined after withdrawing samples from the incubation at assay time points followed by liquid chromatography with tandem mass spectrometry analysis. An organic solvent was used to terminate incubations.

[3] = Mouse hepatocyte intrinsic clearance; format: in vitro ADME; details: 1 μM, 0.5 million cells/mL
Experimental: as §2

[4] = Human liver cytosol intrinsic clearance; format: in vitro ADME; details: human, cytosol
Experimental: as §2, with “1 mg/mL human liver cytosol with high aldehyde oxidase (AO)/xanthine oxidase (XO) activity or 2.5 mg/mL human liver S-9 fraction with high AO/XO activity” for “0.5 million hepatocytes cells/mL”, “duplicate,” for “duplicate with rat, human, dog, monkey, or mouse hepatocytes,”
(§3) These available known AO substrates along with the test compounds were analyzed using three in vitro systems (pooled human liver cytosol, liver S-9 fractions and human hepatocytes isolated from livers perfused with HTK media). Scaled unbound intrinsic clearances were calculated for the test compounds/new chemical entities and were compared to the in vivo unbound intrinsic clearances of the known AO substrates.

[5] = Human liver S-9 intrinsic clearance; format: in vitro ADME; details: human; for CLint scaled at 1 μM: s9
Experimental: as §2, with “1 mg/mL human liver cytosol with high aldehyde oxidase (AO)/xanthine oxidase (XO) activity or 2.5 mg/mL human liver S-9 fraction with high AO/XO activity” for “0.5 million hepatocytes cells/mL”, “duplicate,” for “duplicate with rat, human, dog, monkey, or mouse hepatocytes,”
as §3

[6] = Metabolite profiles in human cryopreserved hepatocytes in absence and presence of AO inhibitor hydralazine; format: in vitro ADME; details: 2 hours; for % of Total (integrated MS peak areas), Human Hepatocytes: absence of hydralazine; for % of Total (integrated MS peak areas), Human Hepatocytes + Hydralazine: hydralazine 10 μM
Experimental: After study sampling, the remaining samples from triplicate incubations were combined and processed for the metabolite identification study.
(§4) To each sample was added equal amounts of ice-cold acetonitrile (v/v) and the samples were then vortex mixed. Following centrifugation at approximately 13,000 rpm for 10 minutes, the supernatants were concentrated under nitrogen flow at 35° C. until approximately 0.1-0.2 mL of extract remained. Prior to analysis, the remaining extract was centrifuged at approximately 13,000 rpm for 15 minutes. The supernatant was injected into LC/UV/MS for analysis.
Metabolite identification was performed on UPLC (Thermo Vanquish) coupled with UV (Thermo Vanquish) and mass spectrometry (MS) detection (Thermo Orbitrap ID-X).
The mass peak areas were used for metabolite profiling, due to low sample concentrations. […] Metabolites having a peak area that accounts for equal to or more than 0.1% of the toral integrated MS peaks areas are reported in Table 1 below.
The metabolites are characterized based on their accurate masses (tolerance ≤5 ppm), mass fragmentation patterns, and comparison with other in vitro studies.
After study sampling, the remaining samples from triplicate incubations were combined and processed for metabolite identification study.
as §4, with “were” for “were then”, “was” for “were”
The mass peak areas are used for metabolite profiling, due to low sample concentrations. […] Metabolites having a peak area that accounts for equal to or more than 0.1% of the toral integrated MS peaks areas are reported in Table 2 below.
The metabolites are characterized based on their accurate masses (tolerance≤5 ppm), mass fragmentation patterns, and comparison with other in vitro studies.

[7] = midazolam 2 μM, 10 min, read-out: CYP inhibition mean IC50 (INH) Isoform: CYP3A4 Substrate: midazolam
[8] = testosterone 60 μM, 30 min, read-out: CYP inhibition mean IC50 (INH) Isoform: CYP3A4 Substrate: testosterone
[9] = Human Liver Cytosol Intrinsic Clearance _1
[10] = Human Liver Cytosol Intrinsic Clearance _2
[11] = s9, Human Liver S-9 Intrinsic Clearance _1
[12] = s9, Human Liver S-9 Intrinsic Clearance _2
[13] = incubation of Compound 24, 1 μM

| Compound | IC50 [1] [µM] | IC50 (CYP3A4; [7]) [µM] | IC50 (CYP3A4; [8]) [µM] | IC50 (CYP2D6) [µM] | Rat Hepatocyte Intrinsic Clearance [2] [μL/min/10^7 cells] | Mouse Hepatocyte Intrinsic Clearance [3] [μL/min/10^7 cells] | CLint scaled at 1 μM [4] [mL/min/kg] | microsomal CLint at 1 μM [4, 9] [µL/min/mg] | microsomal CLint at 1 μM [4, 10] [µL/min/mg] | CLint scaled at 1 μM [5] [mL/min/kg] | microsomal CLint at 1 μM [5, 11] [µL/min/mg] | microsomal CLint at 1 μM [5, 12] [µL/min/mg] | % of Total (integrated MS peak areas), Human Hepatocytes [6, 13] [%] | % of Total (integrated MS peak areas), Human Hepatocytes + Hydralazine [6, 13] [%] | % of Total (integrated MS peak areas), Human Hepatocytes ([6]; incubation of Compound 6, 1 μM) [%] | % of Total (integrated MS peak areas), Human Hepatocytes + Hydralazine ([6]; incubation of Compound 6, 1 μM) [%] |
| --- | --- | --- | --- | --- | --- | --- | --- | --- | --- | --- | --- | --- | --- | --- | --- | --- |
| COc1ccc(C2Oc3c(OC)cc(Cn4cnc5cccnc54)cc3O[C@H]2C)cn1 (stereo partly shown) [Compound 24] | 0.0288 to 0.0365 | > 10 | > 10 | > 10 | 8.72 | 9.36 | 10.5 | 5.1 | 5 | 9 | 3.06 | 2.76 | 72.2 | 90.9 |  |  |
| [2H]c1nc2cccnc2n1Cc1cc(OC)c2c(c1)O[C@@H](C)[C@H](c1ccc(OC)nc1)O2 [Compound 6, 3-(((2S,3S)-8-methoxy-2-(6-methoxypyridin-3-yl)-3-methyl-2,3-dihydrobenzo[b][1,4]dioxin-6-yl)methyl)-3H-imidazo[4,5-b]pyridine-2-d] | 0.0288 to 0.0365 | > 10 | > 10 | > 10 | 9.00 | 6.63 | 3.9 | 1.5 | 2.2 | 3.6 | < 1.1 | < 1.1 |  |  | 87.1 | 92.0 |
